These results are taken from patent US20170226142A1 (Achillion Pharmaceuticals, Inc., priority 2014, published 2017).

pIC50: −log10 of the molar value. Where two headings read alike, the source gives them in different places.

This assay addresses T1, Human factor D (Homo sapiens, UniProt P00746).
T1 construct: purified from human serum; purchased Complement Technology, Inc; host or cells: human serum
The assay is described as follows: Human Factor D Assay (Factor D inhibition assay). It counts as biochemical. Here is the method:
Routine changes in starting materials and reaction conditions, readily apparent to those of skill in the art, were used to make the particular compounds disclosed in Table 2.
Human factor D (purified from human serum, Complement Technology, Inc.) at 80 nM final concentration is incubated with test compound at various concentrations for 5 minutes at room temperature in 50 mM Tris, 1M NaCl, pH 7.5. A synthetic substrate Z-L-Lys-SBzl and DTNB (Ellman's reagent) are added to final concentrations of 100 µM each. The increase in color is recorded at OD405 nm in a microplate in kinetic mode over 30 minutes with 30 second time points in a […]. IC50 values are calculated by non-linear regression from the percentage of inhibition of complement factor D activity as a function of test compound concentration.

Where [1] appears, read: Factor D 80 nM, substrate Z-L-Lys-SBzl, DTNB, pH 7.5, read-out: IC50.

T1 sequence (P00746 26-253): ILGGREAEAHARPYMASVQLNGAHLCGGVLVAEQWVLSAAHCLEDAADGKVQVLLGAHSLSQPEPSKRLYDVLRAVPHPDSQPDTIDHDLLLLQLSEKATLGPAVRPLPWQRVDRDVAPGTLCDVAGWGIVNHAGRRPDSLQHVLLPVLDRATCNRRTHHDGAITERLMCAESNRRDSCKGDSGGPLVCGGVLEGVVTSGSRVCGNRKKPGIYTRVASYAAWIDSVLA

For `CC(=O)c1cn(CC(=O)N2CCOC[C@H]2C(=O)NCc2cccc(Cl)c2F)c2cc(C(=O)O)ccc12` [Compound 159, (S)-1-(2-(3-((3-chloro-2-fluorobenzyl)carbamoyl)morpholino)-2-oxoethyl)-3-acetyl-1H-indole-6-carboxylic acid], under setting [1], the pIC50 (commonly the negative decadic logarithm of the IC50, by convention in mol/L) was greater than 6.00.
On the same count and under the same terms, to `O=C(NCc1cccc(Cl)c1F)[C@@H]1C[C@@H](F)CN1C(=O)Cn1nc(P(=O)(O)O)c2ccncc21` [Compound 65] belongs less than 5.00; to `CC(=O)c1nn(CC(=O)N2C[C@H](F)C[C@H]2C(=O)Nc2cccc(SC(F)(F)F)c2)c2cnccc12` [Compound 53, (2S,4R)-1-(2-(3-acetyl-1H-pyrazolo[3,4-c]pyridin-1-yl)acetyl)-4-fluoro-N-(3-((trifluoro-methyl)thio)phenyl)pyrrolidine-2-carboxamide], greater than 6.00.
Same read-out and setting: to `CC(=O)c1cn(CC(=O)N2C[C@H](F)C[C@H]2C(=O)NCc2cccc(Cl)c2F)c2ccc(C#Cc3cccc(OC(F)(F)F)c3F)cc12` [Compound 177, (2S,4R)-1-(2-(3-acetyl-5-((2-fluoro-3-(trifluoromethoxy)phenyl)ethynyl)-1H-indol-1-yl)acetyl)-N-(3-chloro-2-fluorobenzyl)-4-fluoropyrrolidine-2-carboxamide] belongs 5.00 to 6.00.
Consider `CCOP(=O)(OCC)c1ccc2c(C(C)=O)cn(CC(=O)N3[C@@H]4CCC[C@@H]4C[C@H]3C(=O)NCc3cccc(Cl)c3F)c2c1` [Compound 76, diethyl 1-(2-((2S,3aR,6aR)-2-((3-chloro-2-fluorobenzyl)carbamoyl)-hexahydrocyclopenta[b]pyrrol-1(2H)-yl)-2-oxoethyl)-3-acetyl-1H-indol-6-ylphosphonate], for which the pIC50 (read-out: IC50) was greater than 6.00.
`NC(=O)c1nn(CC(=O)N2C[C@H](F)C[C@H]2C(=O)Nc2cccc(-c3ccccc3Cl)c2F)c2cc(C(=O)NS(=O)(=O)C3CC3)ccc12` [Compound 212]: where the note is “pH 7.5, read-out: IC50”, the negative logarithm of the IC50 (pIC50) is greater than 6.00.
In the case of `C=CC1C[C@]1(NC(=O)[C@@H]1C[C@@H](F)CN1C(=O)Cn1cc(C(C)=O)c2ccc(O)cc21)C(=O)NS(=O)(=O)C1CC1` (stereo partly drawn) [Compound 88, (2S,4R)-1-(2-(3-acetyl-6-hydroxy-1H-indol-1-yl)acetyl)-N-((1R)-1-(cyclopropylsulfonylcarbamoyl)-2-vinylcyclopropyl)-4-fluoropyrrolidine-2-carboxamide], the pIC50 under setting [1] was 5.00 to 6.00.
Still for that read-out and setting: to `CC(=O)c1cn(CC(=O)N2C[C@H](F)C[C@H]2C(=O)NCc2cccc(Cl)c2F)c2ccc(NC(=O)OC3CC3)cc12` [Compound 186, cyclopropyl (3-acetyl-1-(2-((2S,4R)-2-((3-chloro-2-fluorobenzyl)carbamoyl)-4-fluoropyrrolidin-1-yl)-2-oxoethyl)-1H-indol-5-yl)carbamate] belongs greater than 6.00.
Take `CC(=O)c1cn(CC(=O)N2C[C@H](F)C[C@H]2C(=O)Nc2cccc(Oc3ccccc3)c2)c2cc(OCP(=O)(O)O)ccc12` [Compound 232, (((3-acetyl-1-(2-((2S,4R)-4-fluoro-2-((3-phenoxyphenyl)carbamoyl)pyrrolidin-1-yl)-2-oxoethyl)-1H-indol-6-yl)oxy)methyl)phosphonic acid]: the pIC50 is 5.00 to 6.00.
